Drawing on patent US20090181963A1, “3H-[1,2,3]TRIAZOLO[4,5-D]PYRIMIDINE COMPOUNDS, THEIR USE AS mTOR KINASE AND PI3 KINASE INHIBITORS, AND THEIR [sequence]” (Wyeth, priority 2008, published 2009), this text covers IC50 for 28 molecules.

What is called IC50 is the concentration at which inhibition is half-maximal. A low value points to greater potency in that assay.

One experiment addresses PI3 Kinase γ (Homo sapiens, UniProt P48736). The experiment can be described thus: Fluorescence polarization assay for PI3K (PI3 Kinase γ). Conditions: diC8-PI(4,5)P2 substrate, 25 μM ATP, one hour at 25° C. Type of experiment: biochemical. For orientation: Fluorescence polarisation rises when a labelled molecule tumbles more slowly, as on binding a larger partner.
Another experiment addresses PI3 Kinase α (Homo sapiens, UniProt P42336). The experiment can be described thus: Fluorescence polarization assay for PI3K (PI3 Kinase α). Particulars: diC8-PI(4,5)P2 substrate, 25 μM ATP, one hour at 25° C. The experiment is classed as biochemical.

Sequence of PI3 Kinase γ (P48736 whole entry): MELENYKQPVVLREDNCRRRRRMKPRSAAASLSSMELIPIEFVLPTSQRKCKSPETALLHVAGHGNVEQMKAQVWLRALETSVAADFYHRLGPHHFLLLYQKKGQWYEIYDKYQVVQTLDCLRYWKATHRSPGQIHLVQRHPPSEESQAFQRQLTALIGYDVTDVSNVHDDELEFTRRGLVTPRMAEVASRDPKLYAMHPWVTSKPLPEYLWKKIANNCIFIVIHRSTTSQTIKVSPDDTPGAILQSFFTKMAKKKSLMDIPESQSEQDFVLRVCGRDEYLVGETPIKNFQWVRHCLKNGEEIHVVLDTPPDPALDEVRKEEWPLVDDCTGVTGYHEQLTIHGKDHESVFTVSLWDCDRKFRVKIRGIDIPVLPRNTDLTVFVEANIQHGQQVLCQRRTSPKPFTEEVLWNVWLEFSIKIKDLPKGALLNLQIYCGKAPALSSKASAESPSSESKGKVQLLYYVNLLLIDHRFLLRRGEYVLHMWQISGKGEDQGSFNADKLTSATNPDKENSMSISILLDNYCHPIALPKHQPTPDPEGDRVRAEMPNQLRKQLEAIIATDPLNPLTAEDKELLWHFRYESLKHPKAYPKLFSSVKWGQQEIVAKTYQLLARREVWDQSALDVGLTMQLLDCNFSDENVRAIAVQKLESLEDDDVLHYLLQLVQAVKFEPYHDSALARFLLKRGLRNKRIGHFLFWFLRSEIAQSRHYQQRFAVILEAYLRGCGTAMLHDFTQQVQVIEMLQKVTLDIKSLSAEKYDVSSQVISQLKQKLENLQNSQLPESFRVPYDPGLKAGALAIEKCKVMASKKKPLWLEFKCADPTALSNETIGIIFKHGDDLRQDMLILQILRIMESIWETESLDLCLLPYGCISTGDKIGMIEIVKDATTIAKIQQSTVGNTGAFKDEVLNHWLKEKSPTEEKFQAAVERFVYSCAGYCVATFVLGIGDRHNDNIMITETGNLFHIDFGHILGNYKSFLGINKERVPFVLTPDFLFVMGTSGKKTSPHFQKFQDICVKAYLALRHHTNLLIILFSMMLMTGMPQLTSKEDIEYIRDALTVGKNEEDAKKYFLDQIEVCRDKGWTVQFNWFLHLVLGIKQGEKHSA
Sequence of PI3 Kinase α (P42336 whole entry): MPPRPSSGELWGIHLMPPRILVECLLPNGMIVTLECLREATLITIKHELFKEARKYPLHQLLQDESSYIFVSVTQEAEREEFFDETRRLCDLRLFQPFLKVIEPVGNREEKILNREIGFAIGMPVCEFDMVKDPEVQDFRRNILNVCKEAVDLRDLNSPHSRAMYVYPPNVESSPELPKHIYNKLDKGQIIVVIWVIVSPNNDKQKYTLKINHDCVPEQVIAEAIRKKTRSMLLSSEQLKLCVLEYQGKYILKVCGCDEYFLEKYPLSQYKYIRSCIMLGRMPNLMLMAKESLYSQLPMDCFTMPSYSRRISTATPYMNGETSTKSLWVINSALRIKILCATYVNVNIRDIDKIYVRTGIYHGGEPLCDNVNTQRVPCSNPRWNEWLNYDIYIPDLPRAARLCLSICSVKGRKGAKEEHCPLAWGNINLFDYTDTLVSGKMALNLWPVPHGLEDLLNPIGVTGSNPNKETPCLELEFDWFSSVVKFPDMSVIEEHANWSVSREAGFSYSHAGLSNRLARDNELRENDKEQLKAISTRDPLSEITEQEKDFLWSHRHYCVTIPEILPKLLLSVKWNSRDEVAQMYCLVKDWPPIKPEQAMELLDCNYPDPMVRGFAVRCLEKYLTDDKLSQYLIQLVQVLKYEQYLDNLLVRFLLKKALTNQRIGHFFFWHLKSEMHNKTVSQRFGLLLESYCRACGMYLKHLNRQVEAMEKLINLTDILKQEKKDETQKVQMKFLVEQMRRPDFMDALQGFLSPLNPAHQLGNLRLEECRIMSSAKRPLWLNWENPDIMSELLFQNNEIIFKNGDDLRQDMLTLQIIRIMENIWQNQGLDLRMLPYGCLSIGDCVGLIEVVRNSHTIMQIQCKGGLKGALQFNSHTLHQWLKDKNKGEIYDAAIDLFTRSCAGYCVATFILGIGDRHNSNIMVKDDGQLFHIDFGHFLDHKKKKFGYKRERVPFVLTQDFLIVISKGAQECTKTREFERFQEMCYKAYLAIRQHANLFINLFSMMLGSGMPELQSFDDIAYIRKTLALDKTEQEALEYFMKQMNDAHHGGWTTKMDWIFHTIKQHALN
Sequence of PI3 Kinase α (P27986 whole entry partner): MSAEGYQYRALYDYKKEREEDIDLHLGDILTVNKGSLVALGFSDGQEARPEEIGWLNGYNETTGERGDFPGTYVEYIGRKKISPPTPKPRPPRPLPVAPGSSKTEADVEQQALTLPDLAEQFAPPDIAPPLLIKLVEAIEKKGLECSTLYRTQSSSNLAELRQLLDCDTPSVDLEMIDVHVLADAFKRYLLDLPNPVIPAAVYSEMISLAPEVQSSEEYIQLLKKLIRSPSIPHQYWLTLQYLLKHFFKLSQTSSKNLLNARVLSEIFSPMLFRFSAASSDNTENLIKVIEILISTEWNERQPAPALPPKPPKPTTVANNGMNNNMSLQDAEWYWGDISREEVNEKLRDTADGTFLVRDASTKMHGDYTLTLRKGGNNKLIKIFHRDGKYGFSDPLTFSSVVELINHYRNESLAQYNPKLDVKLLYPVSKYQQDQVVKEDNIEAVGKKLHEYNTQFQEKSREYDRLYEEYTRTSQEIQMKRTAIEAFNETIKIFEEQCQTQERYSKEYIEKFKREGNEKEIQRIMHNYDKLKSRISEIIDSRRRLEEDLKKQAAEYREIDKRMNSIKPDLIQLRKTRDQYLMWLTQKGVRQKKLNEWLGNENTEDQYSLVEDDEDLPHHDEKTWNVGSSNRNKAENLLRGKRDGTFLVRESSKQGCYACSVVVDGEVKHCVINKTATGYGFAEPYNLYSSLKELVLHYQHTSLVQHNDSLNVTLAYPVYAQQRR
Description for PI3 Kinase γ: Nunc 384 well black polypropylene fluorescent plates were used for PI3K assays. Reactions were quenched by the addition of EDTA to a final concentration of 10 μM. Final reaction volumes were 10 ml. […] Reactions were allowed to proceed for one hour at 25° C. After I hour, GST-tagged GRP1 (general receptor for phosphoinositides) PH domain fusion protein was added to a final concentration of 100 nM, and BODIPY-TMRI(1,3,4,5)P4 (Echelon) was also added to a final concentration of 5 nM. Final sample volumes were 25 μl with a final DMSO concentration of 0.8%. Assay Plates were read on PerkinElmer Envision plate readers with appropriate filters for Tamra [BODIPY-TMRI(1,3,4,5)P4]. Data obtained were used to calculate enzymatic activity and enzyme inhibition by inhibitor compounds.

Consider `Cn1nccc1CN1CCC(n2nnc3c(N4CCOCC4)nc(-c4cncc(O)c4)nc32)CC1` [Example 30, 5-(3-{1-[(1-methyl-1H-pyrazol-5-yl)methyl]piperidin-4-yl}-7-morpholin-4-yl-3H-[1,2,3]triazolo[4,5-d]pyrimidin-5-yl)pyridin-3-ol], for which the figures for the IC50 on PI3 Kinase γ and at PI3 Kinase α were 2860 nM and 231 nM, respectively.

With `CC(C)(C)OC(=O)N1CCN(c2ccc(NC(=O)c3ccc(Cn4nnc5c(N6CCOCC6)nc(-c6cccc(O)c6)nc54)cc3)cc2)CC1` [Example 218, tert-Butyl 4-{4-[(4-{[5-(3-hydroxyphenyl)-7-morpholin-4-yl-3H-[1,2,3]triazolo[4,5-d]pyrimidin-3-yl]methyl}benzoyl)amino]phenyl}piperazine-1-carboxylate], the figures for the IC50 on PI3 Kinase γ and against PI3 Kinase α were 8080 nM and 71 nM, respectively.

For `OCc1cncc(-c2nc(N3CCOCC3)c3nnn(C4CCN(Cc5ccccc5)CC4)c3n2)c1` [Example 173, {5-[3-(1-benzylpiperidin-4-yl)-7-morpholin-4-yl-3H-[1,2,3]triazolo[4,5-d]pyrimidin-5-yl]pyridin-3-yl}methanol], the figures for the IC50 against PI3 Kinase γ and at PI3 Kinase α were 1850 nM and 570 nM, respectively.

Turning to `Oc1cccc(-c2nc(N3CCOCC3)c3nnn(C4CNC4)c3n2)c1` [Example 125, 3-(3-azetidin-3-yl-7-morpholin-4-yl-3H-[1,2,3]triazolo[4,5-d]pyrimidin-5-yl)phenol], the IC50 was found to be 1960 nM against PI3 Kinase γ and 130 nM on PI3 Kinase α.

Take `OCc1cccc(-c2nc(N3CCOCC3)c3nnn(CCCN4CCCC4)c3n2)c1` [Example 10, {3-[7-morpholin-4-yl-3-(3-pyrrolidin-1-ylpropyl)-3H-[1,2,3]triazolo[4,5-d]pyrimidin-5-yl]phenyl}methanol]: the IC50 against PI3 Kinase γ turned out to be 154 nM; against PI3 Kinase α, 132 nM.

Regarding `CC(C)(C)OC(=O)Cn1nnc2c(N3CCOCC3)nc(-c3ccc(NC(=O)Nc4ccncc4)cc3)nc21` [Example 234, tert-butyl (7-morpholin-4-yl-5-{4-[(pyridin-4-ylcarbamoyl)amino]phenyl}-3H-[1,2,3]triazolo[4,5-d]pyrimidin-3-yl)acetate], the half-maximal inhibitory concentration (IC50) against PI3 Kinase γ came to 173 nM; against PI3 Kinase α it was 74 nM.

Regarding `CC(C)(C)OC(=O)Cn1nnc2c(N3CCOCC3)nc(-c3cccc(O)c3)nc21` [Example 233, tert-butyl [5-(3-hydroxyphenyl)-7-morpholin-4-yl-3H-[1,2,3]triazolo[4,5-d]pyrimidin-3-yl]acetate], the IC50 on PI3 Kinase γ amounted to 2720 nM; against PI3 Kinase α it was 501 nM.

Turning to `CCn1nnc2c(N3CCOC[C@@H]3C)nc(-c3ccc(NC(=O)Nc4ccc(F)cc4)cc3)nc21` [Example 74, (S)-1-(4-(3-ethyl-7-(3-methylmorpholino)-3H-[1,2,3]triazolo[4,5-d]pyrimidin-5-yl)phenyl)-3-(4-fluorophenyl)urea], the results for the IC50 against PI3 Kinase γ and on PI3 Kinase α were 97 nM and 9.5 nM, respectively.

As for `CNCCCCn1nnc2c(N3CCOCC3)nc(-c3cccc(O)c3)nc21` [Example 203, 3-{3-[4-(Methylamino)butyl]-7-morpholin-4-yl-3H-[1,2,3]triazolo[4,5-d]pyrimidin-5-yl}phenol], the values for the IC50 against PI3 Kinase γ and at PI3 Kinase α were 618 nM and 100 nM, respectively.

With `CN(C)CCNC(=O)c1ccc(Cn2nnc3c(N4CCOCC4)nc(-c4cccc(O)c4)nc32)cc1` [Example 214, N-[2-(dimethylamino)ethyl]-4-{[5-(3-hydroxyphenyl)-7-morpholin-4-yl-3H-[1,2,3]triazolo[4,5-d]pyrimidin-3-yl]methyl}benzamide], the IC50 at PI3 Kinase γ amounted to 1540 nM; against PI3 Kinase α it was 386 nM.

For the molecule `Oc1cncc(-c2nc(N3CCOCC3)c3nnn(C4CCN(Cc5ccco5)CC4)c3n2)c1` [Example 13, 5-{3-[1-(2-furylmethyl)piperidin-4-yl]-7-morpholin-4-yl-3H-[1,2,3]triazolo[4,5-d]pyrimidin-5-yl}pyridin-3-ol], the IC50 against PI3 Kinase γ was 111 nM; against PI3 Kinase α, 31 nM.

The molecule `CCn1nnc2c(N3CCOCC3)nc(-c3ccc(NC(=O)Nc4ccc(NC(=O)N5CCOCC5)cc4)cc3)nc21` [Example 263, N-[4-({[4-(3-ethyl-7-morpholin-4-yl-3H-[1,2,3]triazolo[4,5-d]pyrimidin-5-yl)phenyl]carbamoyl}amino)phenyl]morpholine-4-carboxamide] showed a half-maximal inhibitory concentration (IC50) against PI3 Kinase γ of 3.1 nM.

In the case of `CC(C)n1nnc2c(N3CCOCC3)nc(-c3ccc(NC(=O)Nc4ccc(N5CCN(C)CC5)cc4)cc3)nc21` [Example 277, 1-{4-[3-(1-methylethyl)-7-morpholin-4-yl-3H-[1,2,3]triazolo[4,5-d]pyrimidin-5-yl]phenyl}-3-[4-(4-methylpiperazin-1-yl)phenyl]urea], the IC50 at PI3 Kinase γ was determined as 5.5 nM.

Take `CCn1nnc2c(N3CCOC[C@@H]3C)nc(-c3ccc(NC(=O)Nc4ccc(C(=O)N5CCC(N(C)C)CC5)cc4)cc3)nc21` [Example 281, (S)-1-(4-(4-(dimethylamino)piperidine-1-carbonyl)phenyl)-3-(4-(3-ethyl-7-(3-methylmorpholino)-3H-[1,2,3]triazolo[4,5-d]pyrimidin-5-yl)phenyl)urea]: at PI3 Kinase γ, the IC50 turned out to be 2.8 nM.

Molecule `CCn1nnc2c(N3CCOCC3)nc(-c3ccc(NC(=O)Nc4ccc(NC(=O)NCCOC)cc4)cc3)nc21` [Example 276, 1-[4-(3-ethyl-7-morpholin-4-yl-3H-[1,2,3]triazolo[4,5-d]pyrimidin-5-yl)phenyl]-3-(4-{[(2-methoxyethyl)carbamoyl]amino}phenyl)urea] displayed an IC50 on PI3 Kinase γ of 4.45 nM.

As for `CCn1nnc2c(N3CCOCC3)nc(-c3ccc(NC(=O)Nc4ccc(NCc5ccncc5)cc4)cc3)nc21` [Example 252, 1-[4-(3-ethyl-7-morpholin-4-yl-3H-[1,2,3]triazolo[4,5-d]pyrimidin-5-yl)phenyl]-3-{4-[(pyridin-4-ylmethyl)amino]phenyl}urea], on PI3 Kinase γ, the IC50 was found to be 3.83 nM.

In turn, `CCn1nnc2c(N3CCOCC3)nc(-c3ccc(NC(=O)Nc4ccc(NCc5ccc(F)nc5)cc4)cc3)nc21` [Example 254, 1-[4-(3-ethyl-7-morpholin-4-yl-3H-[1,2,3]triazolo[4,5-d]pyrimidin-5-yl)phenyl]-3-(4-{[(6-fluoropyridin-3-yl)methyl]amino}phenyl)urea] showed an IC50 against PI3 Kinase γ of 7.5 nM.

Turning to `CCn1nnc2c(N3CCOCC3)nc(-c3ccc(NC(=O)Nc4ccc(N5CCN(C)CC5)cc4)cc3)nc21` [Example 259, 1-[4-(3-ethyl-7-morpholin-4-yl-3H-[1,2,3]triazolo[4,5-d]pyrimidin-5-yl)phenyl]-3-[4-(4-methylpiperazin-1-yl)phenyl]urea], the IC50 against PI3 Kinase γ was 4 nM. Compared with the last molecule, the IC50 is about 1.9-fold lower.

As to `CCn1nnc2c(N3CCOCC3)nc(-c3ccc(NC(=O)Nc4ccc(C(=O)N5CCN(C)CC5)nc4)cc3)nc21` [Example 289, 1-[4-(3-ethyl-7-morpholin-4-yl-3H-[1,2,3]triazolo[4,5-d]pyrimidin-5-yl)phenyl]-3-{6-[(4-methylpiperazin-1-yl)carbonyl]pyridin-3-yl}urea], inhibition on PI3 Kinase γ was half-maximal at 6 nM (IC50). This IC50 lies about 1.5-fold higher than the previous one.

At PI3 Kinase γ, `CCn1nnc2c(N3CCOCC3)nc(-c3ccc(NC(=O)Nc4ccc(NCc5ccc(OC)nc5)cc4)cc3)nc21` [Example 255, 1-[4-(3-ethyl-7-morpholin-4-yl-3H-[1,2,3]triazolo[4,5-d]pyrimidin-5-yl)phenyl]-3-(4-{[(6-methoxypyridin-3-yl)methyl]amino}phenyl)urea] showed an IC50 of 5 nM.

Turning to `CC(C)n1nnc2c(N3CCOCC3)nc(-c3ccc(NC(=O)Nc4ccc(NS(C)(=O)=O)cc4)cc3)nc21` [Example 279, N-[4-({[4-(3-isopropyl-7-morpholin-4-yl-3H-[1,2,3]triazolo[4,5-d]pyrimidin-5-yl)phenyl]carbamoyl}amino)phenyl]methanesulfonamide], the IC50 at PI3 Kinase γ turned out to be 12 nM. This IC50 lies about 2.4-fold higher than the previous one.

`CCn1nnc2c(N3CCOCC3)nc(-c3ccc(NC(=O)Nc4ccc(C(=O)OC)nc4)cc3)nc21` [Example 287, Methyl 5-({[4-(3-ethyl-7-morpholin-4-yl-3H-[1,2,3]triazolo[4,5-d]pyrimidin-5-yl)phenyl]carbamoyl}amino)pyridine-2-carboxylate] came in with an IC50 at PI3 Kinase γ of 91.5 nM.

In the case of `CCn1nnc2c(N3CCOC[C@@H]3C)nc(-c3ccc(NC(=O)Nc4ccc(C(=O)NCCN5CCCCC5)cc4)cc3)nc21` [Example 284, 4-{[(4-{3-ethyl-7-[(3S)-3-methylmorpholin-4-yl]-3H-[1,2,3]triazolo[4,5-d]pyrimidin-5-yl}phenyl)carbamoyl]amino}-N-(2-piperidin-1-ylethyl)benzamide], on PI3 Kinase γ, it took 4.35 nM to reach half-maximal inhibition (IC50).

`CC(C)n1nnc2c(N3CCOCC3)nc(-c3ccc(NC(=O)Nc4ccc(N)cc4)cc3)nc21` [Example 280, 1-(4-aminophenyl)-3-[4-(3-isopropyl-7-morpholin-4-yl-3H-[1,2,3]triazolo[4,5-d]pyrimidin-5-yl)phenyl]urea] returned an IC50 at PI3 Kinase γ of 7.5 nM.

Take `CC(C)n1nnc2c(N3CCOCC3)nc(-c3ccc(NC(=O)Nc4ccc([N+](=O)[O-])cc4)cc3)nc21` [Example 278, 1-{4-[3-(1-methylethyl)-7-morpholin-4-yl-3H-[1,2,3]triazolo[4,5-d]pyrimidin-5-yl]phenyl}-3-(4-nitrophenyl)urea]: on PI3 Kinase γ, the half-inhibitory concentration (IC50) was 21.5 nM. Against the preceding molecule, the IC50 is about 2.9-fold higher.

At PI3 Kinase γ, `CCn1nnc2c(N3CCOCC3)nc(-c3ccc(NC(=O)Nc4ccc([N+](=O)[O-])cc4)cc3)nc21` [Example 247, 1-[4-(3-ethyl-7-morpholin-4-yl-3H-[1,2,3]triazolo[4,5-d]pyrimidin-5-yl)phenyl]-3-(4-nitrophenyl)urea] gave an IC50 of 15 nM.

For the molecule `CCn1nnc2c(N3CCOC[C@@H]3C)nc(-c3ccc(NC(=O)Nc4ccc(C(=O)NCCN5CCCC5)cc4)cc3)nc21` [Example 283, 4-{[(4-{3-ethyl-7-[(3S)-3-methylmorpholin-4-yl]-3H-[1,2,3]triazolo[4,5-d]pyrimidin-5-yl}phenyl)carbamoyl]amino}-N-(2-pyrrolidin-1-ylethyl)benzamide], the IC50 on PI3 Kinase γ is 3.35 nM.

`CC(C)n1nnc2c(N3CCOCC3)nc(-c3ccc(NC(=O)Nc4ccc(C(=O)N5CCN(C)CC5)cc4)cc3)nc21` [Example 257, 1-{4-[3-(1-methylethyl)-7-morpholin-4-yl-3H-[1,2,3]triazolo[4,5-d]pyrimidin-5-yl]phenyl}-3-{4-[(4-methylpiperazin-1-yl)carbonyl]phenyl}urea] had an IC50 at PI3 Kinase γ of 10 nM.
